Measured values taken from US20040198653A1, “Pharmaceutical compositions which inhibit proliferation of pituitary adenomas and method of use thereof” (priority 2001, published 2004).
Where a SMILES comes first, the peptide text is derived from it. Bridges are numbered along the chain shown (N, C = ends). [ ]: non-standard residue; d: D form. The star is where a group is joined. Gly(N-2-aminoethyl) = NCCNCC(=O)O; 3Pal = N[C@@H](Cc1cccnc1)C(=O)O; Tic = O=C(O)[C@@H]1Cc2ccccc2CN1; X1 = Nc1ccn(CC(=O)*)c(=O)n1; Abu = CC[C@H](N)C(=O)O; Bn = c1ccc(C*)cc1

What was measured:
pituitary adenoma cells [1] = assay: DNA synthesis: [3H]thymidine incorporation in pituitary adenoma cells; assay type: cell-based; details: 10^-9 M, 48 h incubation, medium with 10% FBS, pituitary cells from functioning adenomas
Description: The effects of SSTR selective agonists and antagonists on pituitary adenoma cell DNA synthesis were assessed by determining the rate of [^3H]thymidine incorporation, as previously described (Davis L, et al., 1994 In: Basic methods in Molecular Biology, 2nd edition, Appleton & Lange, Norwalk, Conn., USA: 611-646, degli Uberti E C, et al., 1991 J Clin Endocrinol Metab 72: 1364-1371).
Approximately 10^5 pituitary cells from two functioning adenomas were plated in quadruplicate wells the day of surgery and treated the day after with SRIF and with Compounds 1, 2, 3, and LANREOTIDE at 10^−9M. After 48 h incubation in a medium supplemented with 10% FBS in the presence of [^3H]thy (1.5 μCi/mL; 87 Ci/mmol) with or without each SRIF analogue. Treatments were renewed by adding fresh analogues to the wells after the first 24 h of incubation, without removing the medium.
After incubation, the cells were washed three times with ice-cold PBS and twice with 10% ice-cold trichloroacetic acid (TCA). TCA-precipitated material was solubilized in 500 μL 0.2 mol/L sodium hydroxide and 0.1% SDS. Cell-associated radioactivity was then counted in a scintillation spectrometer. Results (counts per min per well) were obtained by determining the mean value of at least six experiments in quadruplicate. The viability of cells in control and treated cultures was evaluated by Trypan blue staining.

pituitary adenoma cells [2] = assay: Cell proliferation: CELLTITER 96 Aqueous (MTS/PMS) assay, number of viable cells; assay type: cell-based; details: 10^-9 M, 48 hours incubation, medium with 10% FBS, absorbance at 490 nm
Description: The effects of SSTR selective agonists on pituitary adenoma cell proliferation were assessed by the CELLTITER 96 Aqueous Non-Radioactive Cell Proliferation Assay (Promega, Milano, Italy), a colorimetric method for determining the number of viable cells in proliferation assays. The assay contains solutions of a tetrazolium compound (Owen's reagent; MTS) and an electron coupling reagent (phenazine methosulphate; PMS). MTS is bioreduced by cells into a formazan that is soluble in tissue culture medium. The absorbance of the formazan at 490 nm can be measured directly from 96 well assay plates (Zatelli M C, et al., 2000 J Clin Endocrinol Metab 85: 847-852; Cory A H, et al., 1991 Cancer Commun 3: 207-212). The conversion of MTS into the aqueous soluble formazan is accomplished by dehydrogenase enzymes found in metabolically active cells. The quantity of formazan product as measured by the amount of 490 nm absorbance is directly proportional to the number of living cells in culture.
Briefly, adenoma cells were plated in 96-multiwell plates (2×10^4 cells/well) and incubated for 48 hours in a medium supplemented with 10% FBS in the presence or absence of each SRIF analogue (including in one instance, compounds 2 & 3 together) at a concentration of 10^−9 M. Treatments were renewed by adding fresh analogues to the wells after the first 24 hours of incubation. At the end of the incubation period, 20 μl of a combined MTS/PMS solution was added to each well with a repeating pipette, and the plates were incubated for an additional 4 hours at 37° C. in a humidified 5% CO2 atmosphere. The absorbance at 490 nm was then recorded using an ELISA plate reader (EASIA Reader, Medgenix). Results (absorbance at 490 nm) were obtained by determining the mean value of at least six experiments in eight replicates.

| SMILES | % Reduction [3H]Thymidine (pituitary adenoma cells [1]) [%] | % Reduction Viable Cells (pituitary adenoma cells [2]) [%] |
| --- | --- | --- |
| C[C@@H](O)[C@H](NC(=O)[C@H](Cc1ccccc1)NC(=O)[C@@H](NC(=O)[C@H](CCCCN)NC(=O)[C@@H](Cc1c[nH]c2ccccc12)NC(=O)[C@H](Cc1c[nH]c2ccccc12)NC(=O)[C@H](Cc1ccccc1)NC(=O)[C@H](N)Cc1ccccc1)[C@@H](C)O)C(N)=O [Compound 3, D-Phe-Phe-Trp-D-Trp-Lys-Thr-Phe-Thr-NH2] | 15.5 |  |
| CC(C)[C@@H]1NC(=O)[C@H](CCCCN)NC(=O)[C@@H](Cc2c[nH]c3ccccc23)NC(=O)[C@H](Cc2ccc(O)cc2)NC(=O)[C@@H](NC(=O)[C@H](N)Cc2ccc3ccccc3c2)CSSC[C@@H](C(=O)N[C@H](C(N)=O)[C@@H](C)O)NC1=O [LANREOTIDE, D-Nal-cyclo[Cys-Tyr-D-Trp-Lys-Val-Cys]-Thr-NH2, reference compound] | 25. | 12. |
| C[C@H](N)C(=O)NCC(=O)N[C@H]1CSSC[C@@H](C(=O)O)NC(=O)[C@H](CO)NC(=O)[C@H]([C@@H](C)O)NC(=O)[C@H](Cc2ccccc2)NC(=O)[C@H]([C@@H](C)O)NC(=O)[C@H](CCCCN)NC(=O)[C@H](Cc2c[nH]c3ccccc23)NC(=O)[C@H](Cc2ccccc2)NC(=O)[C@H](Cc2ccccc2)NC(=O)[C@H](CC(N)=O)NC(=O)[C@H](CCCCN)NC1=O [SRIF, reference compound] |  | 8. |
| CC[C@@H]1NC(=O)[C@H](CCCCN)NC(=O)[C@@H](Cc2c[nH]c3ccccc23)NC(=O)[C@H](Cc2ccc(O)cc2)NC(=O)[C@@H]2Cc3ccccc3CN2C(=O)[C@H](Cc2ccccc2)NC1=O [Compound 2, cyclo[Tic-Tyr-D-Trp-Lys-Abu-Phe]] (cyclo([Tic]Y[dW]K[Abu]F)) | 25. | 12.5 |
| C[C@@H](OCc1ccccc1)[C@H](NC(=O)[C@H]1CSSC[C@@H](NC(=O)CN(CCN)C(=O)Cn2ccc(N)nc2=O)C(=O)N[C@@H](Cc2cccnc2)C(=O)N[C@H](Cc2c[nH]c3ccccc23)C(=O)N[C@@H](CCCCN)C(=O)N1)C(=O)N[C@@H](Cc1ccc(O)cc1)C(N)=O [Compound 1, Caeg-c(D-Cys-Pal-D-Trp-Lys-D-Cys)-Thr(Bzl)-Tyr-NH2] (X1-[Gly(N-2-aminoethyl)][dC][3Pal][dW]K[dC]T(Bn)Y-NH2; disulfide 2-6) |  | 28.5 |
